A short description of one data set: B. The procedure: Table printed on a drawing sheet, FIG. 2A-D
Blood plasma was collected at indicated time points. […] (B) Plasma half-lives of Dox were calculated using two-phase exponential decay: MFI (t)=Ae^−αt+Be^−βt. t½, α, fast clearance half-life; t½, β, slow clearance half-life. […] At the indicated time points, tumors were harvested, and the amount of Dox within the tumors was quantified (mean±SEM. n=5 for 2 h, n=7 for 24 h per group). […] 1 h after injection, tumors were harvested and fluorescence was analyzed by confocal microscopy. Tissues were also stained with DAPI and anti-CD31 antibody. Scale bar=100 μm. Representative images of 3 tumors, each. Two experimental replicates. Statistical analyses were done using ANOVA with Tukey's test. *p<0.05; **p<0.01; N.S.=not significant.

For data set [1] the following is noted: mouse models; cited from earlier work.
In the next data set the test system is MMTV-PyMT cells. In words: Cellular uptake of Dox-conjugates (confocal microscopy). The following applies: after 1 h of incubation, 50 μM equivalent of Dox. In kind it is cell-based, mouse. As for the experimental part: To evaluate the cellular uptake of Dox-conjugates, MMTV-PyMT cells were seeded in 96 well high content imaging plate (Corning) at 5000 cells/well and incubated overnight. […] After the incubation, cells were washed twice, treated with 75 nM of Lysotracker Deep Red and further incubated 30 min at 37° C. Cells were washed twice and observed by IX83 microscope (Olympus) with ×60 magnification. Images were processed using ImageJ software (NIH). Scale bar; 20 μm.

Data set [2] in a line: Toxicity profiles in tumor-free FVB mice. The conditions noted are these: 20 mg/kg Dox basis. The procedure: Blood samples were collected from each mouse in EDTA-coated tube by submandibular bleeding on day 3 and day 6 after injection for plasma cytokine analysis and hematological analysis. Body weight of each mouse was measured at indicated time points. On day 16, mice were sacrificed and organs were harvested. Spleens were weighed, and the other organs were used for histological analysis. Mice were sacrificed when more than 15% decrease of initial body weight was observed.
Blood samples were analyzed using COULTER Ac⋅T 5diff CP hematology analyzer (Beckman coulter) according to the manufacturer's instructions.
Blood plasma was collected from whole blood sample as described above and stored at −20° C. until use. Cytokine concentrations in plasma were measured using Ready-SET-Go! ELISA kits (eBioscience) and Can Get Signal solution (TOYOBO) according to manufacturer's instructions.
Organs were fixed with 2% paraformaldehyde in PBS overnight. After embedding in paraffin, blocks were cut into 5 μm sections, followed by H&E staining.

Data set [3] concerns MMTV-PyMT breast cancer. In words: MMTV-PyMT murine breast cancer model, anti-tumor efficacy. It is filed as in vivo, mouse. The conditions noted are these: single i.v. injection 5 mg/kg Dox basis on day 7.
Method: The MMTV-PyMT murine breast cancer model was prepared as described previously (9). A total of 5×10^5 MMTV-PyMT cells suspended in 50 μL of PBS were injected subcutaneously into the mammary gland on the right side of each mouse. […] Tumors were measured with a digital caliper at indicated time points, and volumes were calculated as ellipsoids, where V=4/3×3.14×depth/2×width/2×height/2. Mice were sacrificed when tumor volume had reached over 500 mm^3 or when active ulceration was observed. For the therapeutic experiment, FVB mice originated from Charles River origin were used. […] The proportion of mice from different providers was equalized among all groups.
Data set [4] relates to MMTV-PyMT breast cancer. In words: Tumor-infiltrating lymphocytes by flow cytometry in MMTV-PyMT model. In kind it is in vivo, mouse. The conditions noted are these: 7 days after treatment, 5 mg/kg. As for the experimental part:
MMTV-PyMT model was prepared as described above. […] Mice were sacrificed on day 14. Cell suspensions were obtained from each tumor as described previously (9). Tumors were harvested and digested in Dulbecco's Modified Eagle Medium (DMEM) supplemented with 2% FBS, 2 mg/mL collagenase D and 40 μg/mL DNase I (Roche) for 30 min at 37° C. Single-cell suspensions were obtained by gently disrupting the organs through a 70 μm cell strainer. Red blood cells were lysed with ACK lysing buffer (Quality Biological). Fixable live/dead cell discrimination was performed using Fixable Viability Dye eFluor 455 (eBioscience) according to the manufacturer's instructions. Following a washing step, cells were stained with specific antibodies for 20 min on ice prior to fixation. Following antibodies were used to stain the cells: CD3 (145-2C11, BD Biosciences), CD4 (RM4-5, BD Biosciences), CD8α (53-6.7, BD Biosciences), CD45 (30-F11, BD Biosciences), and NK1.1 (PK136, BD Biosciences). All flow cytometric analyses were done using a Fortessa flow cytometer (BD Biosciences) and analyzed using FlowJo software (Tree Star).
A general note: Flow cytometry measures light scatter and fluorescence of single cells or particles in a stream.

Consider `COc1cccc2c1C(=O)c1c(O)c3c(c(O)c1C2=O)C[C@@](O)(/C(CO)=N/NC(=O)CCCCCN1C(=O)C=CC1=O)C[C@@H]3O[C@H]1C[C@H](N)[C@H](O)[C@H](C)O1` [Aldoxorubicin], for which, in “B”, the “t½, α” value is 2.4 ± 0.168 min and the “t½, β” value amounted to 22.6 ± 3.3 h.
On to `COc1cccc2c1C(=O)c1c(O)c3c(c(O)c1C2=O)C[C@@](O)(C(=O)CO)C[C@@H]3O[C@H]1C[C@H](N)[C@H](O)[C@H](C)O1` [Dox, Doxorubicin], for which the “cumulative dose that irreversibly damages cardiac tissue” value in data set [1] is reported as 15 mg/kg. Besides, the “intracellular localization of Dox fluorescence” value in the data set on MMTV-PyMT cells is “detected in cytoplasm, intracellular acidic organelles, and preferentially in the nucleus”.
With `COc1cccc2c1C(=O)c1c(O)c3c(c(O)c1C2=O)C[C@@](O)(/C(CO)=N/NC(=O)CCCCCN1C(=O)C=CC1=O)C[C@@H]3O[C@H]1C[C@H](N)[C@H](O)[C@H](C)O1` [aldoxorubicin], in data set [2] (day 3), the “plasma concentration of IFN-γ” value is recorded as “increased”, the “plasma concentration of IL-5” value is “increased”, the “plasma concentration of IL-6” value is “increased” and the “plasma concentration of TNF-α” value is recorded as “increased”. Moreover, the “white blood cell (WBC) counts” value in data set [2] (day 3) is “significant decrease”. Besides, in data set [2] (day 6), the hematocrit entry is recorded as “significant decrease”, the hemoglobin concentration result was “significant decrease” and the “red blood cell (RBC) counts” value is given as “significant decrease”. Besides, the “splenomegaly (spleen weight)” value in data set [2] (day 16) is on record as “induced splenomegaly”. The tumor growth entry in the data set with MMTV-PyMT breast cancer [3] is “did not”. In addition, in the data set on MMTV-PyMT breast cancer [4], the “number of CD4+ T cells within the tumor per unit tumor mass” value was “not”, the “number of CD8+ T cells within the tumor per unit tumor mass” value is listed as “not” and the “number of NK cells within the tumor per unit tumor mass” value is listed as “not”.

The record behind these values is patent US20220298225A1, “METHODS AND COMPOSITIONS FOR TREATING CANCER WITH COLLAGEN BINDING DRUG CARRIERS” (The University of Chicago, priority 2019, published 2022).
